Data as given in patent publication US12290535B2, “Langerin+ cell targeting” (Max-Planck-Gesellschaft zur Förderung der Wissenschaften …, priority 2018, dated 2025).

Target: T1, Langerin ECD (Homo sapiens, UniProt Q9UJ71, V278A)
T1 construct: residues 148 to 328; TEV site (C); StreptagII (C); made in house; host or cells: E. coli BL21* (DE3)
Assay: 19F R2-filtered NMR reporter displacement assay (Ki determination)
Type: binding
Details: Langerin ECD 50 μM, pH 7.8, 25° C.
Description: Langerin extracellular domain. Expression and purification were conducted as previously published (Wamhoff, E. C. et al. (19)F Nmr-Guided Design of Glycomimetic Langerin Ligands. ACS Chem Biol, 11, 2407-13 (2016)). Briefly, the trimeric Langerin extracellular domain (ECD) was expressed insolubly in E. coli BL21* (DE3) (Invitrogen). Following enzymatic cell lysis, inclusion bodies were harvested and subsequently solubilized. The sample was centrifuged and the Langerin ECD was refolded overnight via rapid dilution. Next, the sample was dialyzed overnight, centrifuged and purified via mannan-agarose affinity chromatography (Sigma Aldrich). For ^19F R2-filtered NMR and lipid-enzyme-linked lectin assay (Lipid-ELLA) experiments, the buffer was exchanged to 25 mM Tris with 150 mM NaCl and 5 mM CaCl2 at pH 7.8 using 7 kDa size-exclusion desalting columns (Thermo Scientific). For STD NMR experiments, Langerin ECD samples were dialyzed five times for at least 8 h against H2O. Subsequently, the H2O was removed via lyophilization and the residue was stored at −80° C. Prior to STD NMR experiments, the Langerin ECD was dissolved in 25 mM Tris-d11 (Eurisotope) with 100% D2O, 150 mM NaCl and 5 mM CaCl2 at pH 7. The concentration of Langerin ECD was determined via UV spectroscopy (A280, 0.1%=2.45). Purity and monodispersity of Langerin ECD samples were analyzed via SDS PAGE and DLS.
General remarks. ^19F R2-filtered NMR experiments were conducted on a PremiumCompact 600 MHz spectrometer (Agilent). Spectra were processed in MestReNova and data analysis was performed with OriginPro (Mestrelab Research. Mestrenova. 11.0.2. (2016); OriginLab. Originpro. 9.1. (2015)). Experiments with the Langerin ECD were performed at a receptor concentration of 50 μM in 25 mM Tris with 10% D2O, 150 mM NaCl and 5 mM CaCl2 at pH 7.8 and 25° C. Experiments with the DC-SIGN CRD were performed at a receptor concentration of 50 μM in 25 mM HEPES with 10% D2O, 150 mM NaCl and 5 mM CaCl2 at pH 7.0 and 25° C. TFA served as an internal reference at a concentration of 50 μM. Apparent relaxation rates R2,obs for the reporter ligand were determined using the CPMG pulse sequence as previously published (Wamhoff, E. C. et al. (19)F Nmr-Guided Design of Glycomimetic Langerin Ligands. ACS Chem Biol, 11, 2407-13 (2016): Carr, H. Y. & Purcell, E. M. Effects of Diffusion on Free Precession in Nuclear Magnetic Resonance Experiments. Phys Rev, 94, 630-638 (1954); Meiboom, S. & Gill, D. Modified Spin-Echo Method for Measuring Nuclear Relaxation Times. Rev Sci Instrum 29, 688-691 (1958)).
Ki determination. Ki values were determined as previously published for Langerin (Wamhoff, E. C. et al. (19)F NMR-Guided Design of Glycomimetic Langerin Ligands. ACS Chem Biol 11, 2407-13 (2016)). Briefly, titration experiments were conducted at a concentration of 0.1 mM of reporter ligand 24 at five competitor concentrations [I]T. Samples were prepared via serial dilution. For the acids GlcNS, GlcNAc-6-OS and GlcNS-6-OS the pH values were monitored and adjusted to 7.8 if necessary.

T1 sequence (Q9UJ71 148-328 V278A): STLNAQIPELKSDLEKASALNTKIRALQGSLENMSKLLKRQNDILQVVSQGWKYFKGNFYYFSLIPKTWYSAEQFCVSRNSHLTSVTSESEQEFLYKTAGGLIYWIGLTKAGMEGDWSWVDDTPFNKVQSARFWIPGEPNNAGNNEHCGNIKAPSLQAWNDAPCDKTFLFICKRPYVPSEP

Ki: 10 ± 1 mM
Compound: CC(=O)NCCO[C@H]1O[C@H](CO)[C@@H](O)[C@H](O)[C@@H]1O [Man analog 21]
